Laboratory results from patent US9469615B2, “Quinoxalines and AZA-quinoxalines as CRTH2 receptor modulators” (Merck Sharp & Dohme Corp., priority 2010, dated 2016).

Target: T1, hCRTH2 (Homo sapiens, UniProt Q9Y5Y4)
T1 construct: expressed in transfected cells; host or cells: HEK (human embryonic kidney) cells expressing hCRTH2; membrane preparation
T1 sequence (Q9Y5Y4 1-395): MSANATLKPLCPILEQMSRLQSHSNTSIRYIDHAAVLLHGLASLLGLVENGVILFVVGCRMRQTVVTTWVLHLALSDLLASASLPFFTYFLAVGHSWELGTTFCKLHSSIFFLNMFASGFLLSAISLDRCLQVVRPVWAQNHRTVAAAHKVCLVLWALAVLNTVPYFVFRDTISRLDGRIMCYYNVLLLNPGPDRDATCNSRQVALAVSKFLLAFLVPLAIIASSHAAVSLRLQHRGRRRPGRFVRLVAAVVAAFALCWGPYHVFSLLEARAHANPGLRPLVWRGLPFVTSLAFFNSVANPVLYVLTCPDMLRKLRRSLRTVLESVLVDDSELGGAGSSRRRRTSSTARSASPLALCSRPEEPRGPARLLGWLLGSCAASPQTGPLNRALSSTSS
Assay: Radioligand binding assay ([3H]PGD2 competition, HEK-hCRTH2 membranes)
Conditions: [3H]PGD2 binding
Outline: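 Filter-bound radioactivity was counted by scintillation after 60 min incubations at room temperature. Membranes (8-20 μg) from HEK cells expressing hCRTH2 competed test ligands against 3.0 nM [3H]PGD2 in Tris-HCl pH 7.4 buffer with EDTA and 2 mM MnCl2; 10 μM PGD2 set non-specific binding.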

Row | Compound | Ki (rated A-E (Table A)) | Ki (values in text)
1 | O=C(O)CCCCc1nc2cc(C(=O)N[C@@H](c3ccc(Cl)cc3)C(F)(F)F)ccc2nc1-c1ccc(Cl)cc1 [16W] | 0.1 to 2 nM | 0.4 nM
2 | O=C(O)CCCCc1nc2cc(C(=O)N[C@@H](c3ccc(F)cc3)C(F)(F)F)ccc2nc1-c1ccc(Cl)cc1 [16Y, 3-(4-chlorophenyl)-7-[[[2,2,2-trifluoro-1(S)-(4-fluorophenyl)ethyl]amino]carbonyl]-2-quinoxalinepentanoic acid] | 0.1 to 2 nM | –
3 | C[C@H](NC(=O)c1ccc2nc(-c3ccc(Cl)cc3)c(CCCCC(=O)O)nc2c1)c1ccccn1 [16Z, 3-(4-chlorophenyl)-7-[[[1(S)-(2-pyridinyl)ethyl]amino]carbonyl]-2-quinoxalinepentanoic acid] | 2.1 to 20 nM | –
4 | O=C(O)CCCCc1nc2cc(C(=O)N[C@@H](c3ccccc3)C(F)(F)F)ccc2nc1-c1ccc(Cl)cc1 [16i, 3-(4-chlorophenyl)-7-[[(2,2,2-trifluoro-1(s)-phenylethyl)amino]carbonyl]-2-quinoxalinepentanoic acid] | 0.1 to 2 nM | –
5 | O=C(O)CCCCc1nc2cc(C(=O)N3CCC[C@@H](c4ccccc4)C3)ccc2nc1-c1ccc(Cl)cc1 [16o, 3-(4-chlorophenyl)-7-[(3(S)-phenyl-1-piperidinyl)carbonyl]-2-quinoxalinepentanoic acid] | 0.1 to 2 nM | –
6 | CC(CCc1nc2cc(C(=O)N[C@@H](C)c3ccc(Cl)cc3)ccc2nc1-c1ccc(Cl)cc1)CC(=O)O (some centres unmarked) [17D] | 0.1 to 2 nM | –
7 | CC(CCc1nc2cc(C(=O)N[C@H](C)c3ccc(Cl)cc3)ccc2nc1-c1ccc(Cl)cc1)CC(=O)O (stereo partly drawn) [17E, 3-(4-chlorophenyl)-7-[[[1(R)-(4-chlorophenyl)ethyl]amino]carbonyl]-beta-methyl-2-quinoxalinepentanoic acid] | 2.1 to 20 nM | –
8 | CC(CCc1nc2cc(C(=O)N3CC(c4ccccc4)C3)ccc2nc1-c1ccc(Cl)cc1)CC(=O)O (stereo not drawn) [17F, 3-(4-chlorophenyl)-beta-methyl-7-[(3-phenyl-1-azetidinyl)carbonyl]-2-quinoxalinepentanoic acid] | 0.1 to 2 nM | –
9 | CC(CCc1nc2cc(C(=O)N[C@H](c3ccc(F)cc3)C(F)(F)F)ccc2nc1-c1ccc(Cl)cc1)CC(=O)O (some centres unmarked) [17G] | 2.1 to 20 nM | –
10 | COc1ccc(CNC(=O)c2ccc3nc(-c4ccc(Cl)cc4)c(CCC(C)CC(=O)O)nc3c2)cc1 (centres unmarked) [17H] | 2.1 to 20 nM | –
11 | CC(CCc1nc2cc(C(=O)N3CCC[C@H](c4ccccc4)C3)ccc2nc1-c1ccc(Cl)cc1)CC(=O)O (stereo partly drawn) [17J, 3-(4-chlorophenyl)-beta-methyl-7-[(3(R)-phenyl-1-piperidinyl)carbonyl]-2-quinoxalinepentanoic acid] | 2.1 to 20 nM | –
12 | CC(CCc1nc2cc(C(=O)N3CC[C@@H](c4ccccc4)C3)ccc2nc1-c1ccc(Cl)cc1)CC(=O)O (stereo partly drawn) [17K, 3-(4-chlorophenyl)-beta-methyl-7-[(3(S)-phenyl-1-pyrrolidinyl)carbonyl]-2-quinoxalinepentanoic acid] | 0.1 to 2 nM | –
13 | CC(CCc1nc2cc(C(=O)N3CC[C@H](c4ccccc4)C3)ccc2nc1-c1ccc(Cl)cc1)CC(=O)O (stereo partly drawn) [17L, 3-(4-chlorophenyl)-beta-methyl-7-[(3(R)-phenyl-1-pyrrolidinyl)carbonyl]-2-quinoxalinepentanoic acid] | 2.1 to 20 nM | –
14 | CC(CCc1nc2cc(C(=O)N[C@@H](c3ccccc3)C(F)(F)F)ccc2nc1-c1ccc(Cl)cc1)CC(=O)O (stereo partly drawn) [17M, 3-(4-chlorophenyl)-beta-methyl-7-[[[2,2,2-trifluoro-(1S)-phenylethyl]amino]carbonyl]-2-quinoxaline pentanoic acid] | 2.1 to 20 nM | –
15 | CC(CCc1nc2cc(C(=O)N[C@H](c3ccccc3)C(F)(F)F)ccc2nc1-c1ccc(Cl)cc1)CC(=O)O (stereo partly drawn) [17N, 3-(4-chlorophenyl)-beta-methyl-7-[[(2,2,2-trifluoro-1(R)-phenylethyl)amino]carbonyl]-2-quinoxalinepentanoic acid] | 2.1 to 20 nM | –
16 | COc1ccc([C@H](C)NC(=O)c2ccc3nc(-c4ccc(Cl)cc4)c(CCC(C)CC(=O)O)nc3c2)cc1 (stereo partly drawn) [17P, 3-(4-chlorophenyl)-7-[[[1(S)-(4-methoxyphenyl)ethyl]amino]carbonyl]-beta-methyl-2-quinoxaline pentanoic acid] | 2.1 to 20 nM | –
17 | CC(CCc1nc2cc(C(=O)NCc3cccc(Cl)c3)ccc2nc1-c1ccc(C(F)(F)F)cc1)CC(=O)O (stereo not drawn) [17Q, 7-[[[(3-chlorophenyl)methyl]amino]carbonyl]-beta-methyl-3-[4-(trifluoromethyl)phenyl]-2-quinoxalinepentanoic acid] | 2.1 to 20 nM | –

Row | Compound | Ki (rated A-E (Table A)) | Ki (values in text)
18 | CC(CCc1nc2cc(C(=O)N3CCC(c4ccccc4)CC3)ccc2nc1-c1ccc(C(F)(F)F)cc1)CC(=O)O (centres unmarked) [17R] | 0.1 to 2 nM | –
19 | CC(CCc1nc2cc(C(=O)N[C@@H](c3ccccc3)C(F)(F)F)ccc2nc1-c1ccc(C(F)(F)F)cc1)CC(=O)O (some centres unmarked) [17S] | 2.1 to 20 nM | –
20 | CC(CCc1nc2cc(C(=O)NC3Cc4ccccc4C3)ccc2nc1-c1ccc(C(F)(F)F)cc1)CC(=O)O (stereo not drawn) [17T, 7-[[(2,3-dihydro-1H-inden-2-yl)amino]carbonyl]-beta-methyl-3-[4-(trifluoromethyl)phenyl]-2-quinoxalinepentanoic acid] | 0.1 to 2 nM | –
21 | CC(CCc1nc2cc(C(=O)N3CC[C@H](c4ccccc4)C3)ccc2nc1-c1ccc(C(F)(F)F)cc1)CC(=O)O (stereo partly drawn) [17U, beta-methyl-7-[(3(R)-phenyl-1-pyrrolidinyl)carbonyl]-3-[4-(trifluoromethyl)phenyl]-2-quinoxalinepentanoic acid] | 2.1 to 20 nM | –
22 | CC(CCc1nc2cc(C(=O)N3CC[C@@H](c4ccccc4)C3)ccc2nc1-c1ccc(C(F)(F)F)cc1)CC(=O)O (stereo partly drawn) [17V, beta-methyl-7-[(3(S)-phenyl-1-pyrrolidinyl)carbonyl]-3-[4-(trifluoromethyl)phenyl]-2-quinoxalinepentanoic acid] | 0.1 to 2 nM | –
23 | CC(CCc1nc2cc(C(=O)N3CC(c4ccccc4)C3)ccc2nc1-c1ccc(C(F)(F)F)cc1)CC(=O)O (stereo not drawn) [17W, beta-methyl-7-[(3-phenyl-1-azetidinyl)carbonyl]-3-[4-(trifluoromethyl)phenyl]-2-quinoxalinepentanoic acid] | 0.1 to 2 nM | –
24 | CC(CCc1nc2cc(C(=O)NCc3ccc(Cl)cc3)ccc2nc1-c1ccc(C(F)(F)F)cc1)CC(=O)O (stereo not drawn) [17X, 7-[[[(4-chlorophenyl)methyl]amino]carbonyl]-beta-methyl-3-[4-(trifluoromethyl)phenyl]-2-quinoxalinepentanoic acid] | 2.1 to 20 nM | –
25 | CC(CCc1nc2cc(C(=O)NCc3ccc(OC(F)(F)F)cc3)ccc2nc1-c1ccc(C(F)(F)F)cc1)CC(=O)O (stereo not drawn) [17Y, beta-methyl-7-[[[[4-(trifluoromethoxy)phenyl]methyl]amino]carbonyl]-3-[4-(trifluoromethyl)phenyl]-2-quinoxalinepentanoic acid] | 2.1 to 20 nM | –
26 | CC(CCc1nc2cc(C(=O)NCc3ccc(C#N)cc3)ccc2nc1-c1ccc(C(F)(F)F)cc1)CC(=O)O (stereo not drawn) [17Z, 7-[[[(4-cyanophenyl)methyl]amino]carbonyl]-beta-methyl-3-[4-(trifluoromethyl)phenyl]-2-quinoxalinepentanoic acid] | 2.1 to 20 nM | –
27 | CC(CCc1nc2cc(C(=O)N3CCC[C@@H](c4ccccc4)C3)ccc2nc1-c1ccc(Cl)cc1)CC(=O)O (stereo partly drawn) [17i, 3-(4-chlorophenyl)-beta-methyl-7-[(3(S)-phenyl-1-piperidinyl)carbonyl]-2-quinoxalinepentanoic acid] | 2.1 to 20 nM | –
28 | COc1ccc([C@@H](C)NC(=O)c2ccc3nc(-c4ccc(Cl)cc4)c(CCC(C)CC(=O)O)nc3c2)cc1 (stereo partly drawn) [17o, 3-(4-chlorophenyl)-7-[[[1(R)-(4-methoxyphenyl)ethyl]amino]carbonyl]-beta-methyl-2-quinoxaline pentanoic acid] | 0.1 to 2 nM | –
29 | CC(CCCc1nc2cc(C(=O)NCc3cccc(Cl)c3)ccc2nc1-c1ccc(C(F)(F)F)cc1)C(=O)O (stereo not drawn) [18D, 7-[[[(3-chlorophenyl)methyl]amino]carbonyl]-alpha-nethyl-3-[4-(trifluoromethyl)phenyl]-2-quinoxalinepentanoic acid] | 2.1 to 20 nM | –
30 | CC(CCCc1nc2cc(C(=O)N3CC[C@@H](c4ccccc4)C3)ccc2nc1-c1ccc(C(F)(F)F)cc1)C(=O)O (stereo partly drawn) [18E, alpha-methyl-7-[(3(S)-phenyl-1-pyrrolidinyl)carbonyl]-3-[4-(trifluoromethyl)phenyl]-2-quinoxalinepentanoic acid] | 0.1 to 2 nM | –
31 | CC(CCCc1nc2cc(C(=O)N3CC[C@H](c4ccccc4)C3)ccc2nc1-c1ccc(C(F)(F)F)cc1)C(=O)O (stereo partly drawn) [18F, alpha-methyl-7-[(3(R)-phenyl-1-pyrrolidinyl)carbonyl]-3-[4-(trifluoromethyl)phenyl]-2-quinoxalinepentanoic acid] | 2.1 to 20 nM | –
32 | CC(CCCc1nc2cc(C(=O)NC3Cc4ccccc4C3)ccc2nc1-c1ccc(C(F)(F)F)cc1)C(=O)O (stereo not drawn) [18G, 7-[[(2,3-dihydro-1H-inden-2-yl)amino]carbonyl]-alpha-methyl-3-[4-(trifluoromethyl)phenyl]-2-quinoxalinepentanoic acid] | 0.1 to 2 nM | –
33 | CC(CCCc1nc2cc(C(=O)N[C@@H](c3ccccc3)C(F)(F)F)ccc2nc1-c1ccc(C(F)(F)F)cc1)C(=O)O (stereo partly drawn) [18H, alpha-methyl-3-[4-(trifluoromethyl)phenyl]-7-[[(2,2,2-trifluoro-1(S)-phenylethyl)amino]carbonyl]-2-quinoxalinepentanoic acid] | 2.1 to 20 nM | –
34 | N#Cc1ccc(CNC(=O)c2ccc3nc(-c4ccc(Cl)cc4)c(CCc4cccc(CC(=O)O)c4)nc3c2)cc1 [19F, 3-[2-[3-(4-chlorophenyl)-7-[[[(4-cyanophenyl)methyl]amino]carbonyl]-2-quinoxalinyl]ethyl] benzeneacetic acid] | 2.1 to 20 nM | –
